# In patent US5869609A, “G protein coupled glutamate receptors” (priority 1995, dated 1999):
# Like-named read-outs stand apart in the source and are kept apart here.
# Legend:
# [1] = target: T1, GluG R encoded by clone 45-A (Rattus norvegicus, UniProt P23385); assay: Voltage clamp assay of inhibition of glutamic acid-evoked current in injected oocytes; assay type: cell-based; details: 1 mM DL-AP3; 10 μM glutamic acid; read-out: current evoked by 10 μM glutamic acid, % of the control
# T1 construct: expressed in transfected cells; host or cells: Xenopus oocytes injected with RNA transcribed in vitro from clone 45-A
# Method: Voltage clamp assays were also carried out on injected oocytes to measure the inhibition by the putative glutamate G protein coupled receptor antagonist, 2-amino-3-phosphonopropionic acid (AP3).
# [2] = target: T1, GluG R encoded by clone 45-A; assay type: cell-based
# GluG R = assay: Voltage-clamp recording of oocytes injected with RNA from positive pools of the cerebellum library; assay type: cell-based, rat; details: oocyte injected with RNA from subfractionated pool of 14,000 colonies, approximately 100 ng RNA
# Method: Plasmid DNA prepared from each of the 10 pools of 100,000 clones, which in total represented one sublibrary of one million clones of the cerebellum cDNA library, was purified by cesium chloride gradient ultracentrifugation. The DNA was transcribed in vitro with T7 RNA polymerase (Pharmacia) in the presence of capped nucleotide (GpppG, Pharamcia). […] The transcription reaction tubes were set up by adding 12 μl of 5× transcription buffer (Stratagene Cloning Systems, La Jolla, Calif.), 3 μl each of 10 mM ATP, CTP, GTP, and UTP, 6 μl of 10 mM GpppG (Pharmacia), 6 μl of 1 mg/ml BSA, 3 μl of 200 mM DTT, 1.5 μl of 40 U/μl RNasin (ProMega Biotech, Madison, Wis.), 8.5 μl of water, 10 μl of cDNA containing 5 to 10 μg DNA, and 1 μl of 70 U/μl T7 RNA polymerase. […] Forty microliters of water was added to the radiolabeled reactions, and 1 μl was removed from each sample and counted to determine total counts. […] The samples were centrifuged to collect the RNA and the RNA pellets were counted to determine the counts incorporated into RNA. […]
# The RNA from each of the 10 sublibraries were injected into oocytes as described above and translation was allowed for four days. Expression of GluG R activity was assessed by voltage-clamp assay as described above. […]
# [3] = tested on: rat G protein coupled glutamate receptor; assay: Competition of quisqualate with tritiated glutamic acid on membranes of transfected BHK cells; assay type: binding; details: membranes of BHK 570 and BHK TK^- ts13 clones
# Method: Transfected cell lines expressing GluG R were identified by the binding of ^3 H-glutamate to membrane preparations from transfected cells. Cell lines expressing low to moderate levels of GluG R are used to set up functional screening assays.
# Clones of BHK 570 and BHK TK^- ts13 cells expressing the rat G protein coupled glutamate receptor cDNA were plated in two or three 150 mm maxi-plates culture dishes and were grown to confluency. The cells from each plate were scraped in 5 ml of PBS (phosphate buffered saline, Sigma Chemical Co., St. Louis, Mo.), which was pre-chilled to 4° C. The cells were removed to a chilled centrifuged tube, and the plates were each rinsed with 5 ml of chilled PBS and pooled with the cells. The chilled tubes were spun at 1,000 rpm for two minutes, and the supernatant was discarded. The cells were frozen at either -70° C. or on dry ice. In some cases, the cells were left overnight at -70° C. […] The filters were dried in a microwave oven and counted in a […].
# Protein determinations were carried out using a Coomassie Blue-based assay from Pierce Chemical Company (Rockford, Ill.) under conditions set forth by the manufacturer. One hundred microliters of undiluted cell homogenate or BSA standard was added to 2 ml of reagent and the optical density was measured at 595 nm. […]
# [4] = 100 μM, saturating concentration
# T1 sequence (P23385 19-1199): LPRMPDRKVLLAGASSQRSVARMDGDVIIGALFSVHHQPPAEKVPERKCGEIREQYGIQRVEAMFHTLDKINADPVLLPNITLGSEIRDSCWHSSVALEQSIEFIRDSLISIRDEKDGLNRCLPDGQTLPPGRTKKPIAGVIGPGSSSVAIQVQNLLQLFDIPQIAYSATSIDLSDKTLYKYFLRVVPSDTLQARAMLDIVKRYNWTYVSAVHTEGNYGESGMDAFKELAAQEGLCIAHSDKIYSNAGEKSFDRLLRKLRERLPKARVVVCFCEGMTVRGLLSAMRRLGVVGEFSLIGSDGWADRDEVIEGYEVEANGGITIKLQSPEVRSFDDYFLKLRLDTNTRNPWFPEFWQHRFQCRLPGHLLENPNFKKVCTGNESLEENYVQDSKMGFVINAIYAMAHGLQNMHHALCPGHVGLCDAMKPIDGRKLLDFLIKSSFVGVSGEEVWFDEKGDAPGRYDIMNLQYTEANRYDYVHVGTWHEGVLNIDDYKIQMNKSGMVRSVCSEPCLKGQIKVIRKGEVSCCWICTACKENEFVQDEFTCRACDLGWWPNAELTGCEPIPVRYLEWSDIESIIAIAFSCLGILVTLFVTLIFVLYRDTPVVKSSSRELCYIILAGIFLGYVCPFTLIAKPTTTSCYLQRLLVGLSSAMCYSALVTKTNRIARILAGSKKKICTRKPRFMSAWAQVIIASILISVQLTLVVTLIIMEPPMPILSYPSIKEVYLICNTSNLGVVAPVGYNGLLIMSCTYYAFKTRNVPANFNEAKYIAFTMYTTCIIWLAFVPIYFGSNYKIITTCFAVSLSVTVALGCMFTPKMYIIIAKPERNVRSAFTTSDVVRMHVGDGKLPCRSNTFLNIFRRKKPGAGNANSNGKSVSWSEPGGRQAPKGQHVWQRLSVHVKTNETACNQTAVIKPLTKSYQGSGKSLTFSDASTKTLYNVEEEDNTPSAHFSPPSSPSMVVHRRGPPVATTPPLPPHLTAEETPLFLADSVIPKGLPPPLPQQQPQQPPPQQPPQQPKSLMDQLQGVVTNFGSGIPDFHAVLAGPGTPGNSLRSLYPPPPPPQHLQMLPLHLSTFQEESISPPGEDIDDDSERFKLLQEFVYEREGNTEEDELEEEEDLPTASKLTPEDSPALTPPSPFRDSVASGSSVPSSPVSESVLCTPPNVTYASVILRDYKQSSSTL
structure (smiles),measurement,setting,value
"NC(CP(=O)(O)O)C(=O)O (racemic) [DL-AP3, 2-amino-3-phosphonopropionic acid]",remaining activity at 1000 µM,[1],59.3 ± 7.3%
C=C(C)[C@H]1CN[C@H](C(=O)O)[C@H]1CC(=O)O [kainic acid],response relative to 100 μM L-glutamate,"[2]; 1 mM, saturating concentration",ineffective
"NC(CCP(=O)(O)O)C(=O)O (centres unmarked) [APB, 2-amino-4-phosphonobytyric acid]",response relative to 100 μM L-glutamate,[2]; [4],ineffective
"CN[C@H](CC(=O)O)C(=O)O [NMDA, N-methyl-D-aspartic acid]",response relative to 100 μM L-glutamate,[2]; 100 μM NMDA+10 μM glycine,ineffective
"Cc1onc(O)c1CC(N)C(=O)O (stereo not drawn) [AMPA, α-amino-3-hydroxy-5-methyl-isoxazole-4-propionic acid]",response relative to 100 μM L-glutamate,[2]; [4],ineffective
N[C@@H](CC(=O)O)C(=O)O [aspartic acid],response relative to 100 μM L-glutamate,"[2]; 1 mM, saturating concentration",ineffective
"N[C@@H](Cn1oc(=O)[nH]c1=O)C(=O)O [Quisqualic acid, quisqualic acid]",actual peak current in response to quisqualate (estimated from a digital panel meter),GluG R,approximately 1300 nA
same,competitive binding to the glutamate receptor expressed by transfected BHK cells,[3],able to competitively bind
